Assay results taken from patent US20250144067A1, “PERSONALIZED STARVATION THERAPY FOR CANCER” (Faeth Therapeutics, Inc., priority 2021, published 2025).
Where a name gives a salt, the structure may show the parent alone. Read-outs that look alike come from different tables or passages of the source.

What was measured:
[1] = test system: NCI-H292 lung cancer cells; assay: FDA drug screening, complete media vs cholesterol-free media without statin (TABLE 1); assay type: cell-based, human
[2] = test system: NCI-H292 lung cancer cells; assay: FDA drug screening, complete media vs cholesterol-free media with simvastatin (TABLE 2); assay type: cell-based, human
[3] = Complete minus Cholesterol-free, >0 enhanced anti-cancer activity, about 0 neutral, <0 antagonist
[4] = NCI-H292 cells, cholesterol-free media without statin
[5] = NCI-H292 cells, FDA drug library screen, cholesterol-free media with simvastatin 0.04 μM
[6] = NCI-H292 cells, FDA drug library screen, complete media
[7] = complete media vs cholesterol-free media + simvastatin (0.04 μM), >0 enhanced anti-cancer activity, about 0 neutral, <0 antagonist
[8] = Complete minus Cholesterol-free, greater than 0 enhanced anti-cancer activity, about 0 neutral, below 0 antagonist
[9] = NCI-H292 cells, FDA drug library screen, cholesterol-free media without statin
[10] = complete media minus cholesterol-free media + simvastatin, >0 enhanced anti-cancer activity, about 0 neutral, <0 antagonist
[11] = NCI-H292 cells, cholesterol-free media with simvastatin 0.04 μM, cell growth value in FDA drug screen
[12] = NCI-H292 cells, complete media, cell growth value in FDA drug screen
[13] = NCI-H292 cells, cholesterol-free media without statin, FDA drug library screen
[14] = NCI-H292 cells, complete media, FDA drug library screen
[15] = NCI-H292 cells, cholesterol-free media with simvastatin 0.04 μM, FDA drug library screen (TABLE 2)
[16] = NCI-H292 cells, complete media, FDA drug library screen (TABLE 2)
[17] = complete media minus cholesterol-free media + simvastatin (0.04 μM), >0 enhanced anti-cancer activity, about 0 neutral, <0 antagonist

SMILES	Difference [1, 3]	Cholesterol-free [1, 4]	Complete ([1]; NCI-H292 cells, complete media)	Cholesterol-free media + simvastatin (0.04 μM) [2, 5]	Complete Media [2, 6]	Difference [2, 10]	also measured
CN[C@H](CC(C)C)C(=O)N[C@H]1C(=O)N[C@@H](CC(N)=O)C(=O)N[C@H]2C(=O)N[C@H]3C(=O)N[C@H](C(=O)N[C@H](C(=O)O)c4cc(O)cc(O)c4-c4cc3ccc4O)[C@H](O)c3ccc(c(Cl)c3)Oc3cc2cc(c3O[C@@H]2O[C@H](CO)[C@@H](O)[C@H](O)[C@H]2O[C@H]2C[C@](C)(N)[C@H](O)[C@H](C)O2)Oc2ccc(cc2Cl)[C@H]1O [Vancomycin (hydrochloride)]							Cholesterol-free [1]: 0.8305; Complete [1]: 0.7537; Difference [1]: −0.08; Cholesterol-free media + simvastatin (0.04 μM) [2]: 0.8152; Complete Media [2]: 0.7422; Difference [2]: −0.07
CC(C)(C)NC(=O)N[C@H](C(=O)N1C[C@H]2[C@@H]([C@H]1C(=O)NC(CC1CCC1)C(=O)C(N)=O)C2(C)C)C(C)(C)C (stereo partly drawn) [Boceprevir]	−0.30	1.3	1.001	1.494	1.414		Difference [2, 7]: −0.08
CC(=O)Nc1c(I)c(NC(C)=O)c(I)c(C(=O)[O-])c1I.[Na+] [Sodium diatrizoate]				0.8717	1.037	0.16	Difference [1, 8]: −0.08; Cholesterol-free [1, 9]: 1.128; Complete [1, 6]: 1.045
O=C(O)CN(CCN(CC(=O)O)CC(=O)O)CC(=O)O	−0.27	1.665	1.397			0.08	Cholesterol-free media + simvastatin (0.04 μM) [2, 11]: 0.8557; Complete Media [2, 12]: 0.9311
CN(C)CCC=C1c2ccccc2C(C)(C)c2ccccc21 [Melitracen (hydrochloride)]				1.24	1.495	0.26	Difference [1, 8]: −0.10; Cholesterol-free [1, 9]: 1.283; Complete [1, 6]: 1.187
O=C[C@H](O)[C@@H](O)[C@H](O)CO [Xylose]		1.238	0.9044	1.188	1.083		Difference ([1]; complete vs cholesterol-free media, greater than 0 enhanced anti-cancer activity, about 0 neutral, below 0 antagonists): −0.33; Difference [2, 7]: −0.11
C[C@]12C=CC(=O)C=C1CC[C@@H]1[C@@H]2C(=O)C[C@@]2(C)[C@H]1CC[C@]2(O)C(=O)CO [Prednisone]						0.07	Difference ([1]; Complete minus Cholesterol-free, greater than 0 enhanced anti-cancer activity, about 0 neutral, below 0 antagonists): −0.52; Cholesterol-free ([1]; NCI-H292 cells in cholesterol-free media without statin): 1.522; Complete ([1]; NCI-H292 cells in complete media): 1.002; Cholesterol-free media + simvastatin (0.04 μM) [2, 11]: 0.9598; Complete Media [2, 12]: 1.028
CC(C)COCC(CN(Cc1ccccc1)c1ccccc1)N1CCCC1 (stereo not drawn) [Bepridil (hydrochloride hydrate)]	−0.25	1.151	0.8961	1.501	1.762	0.26	
COc1ccc2[n-]c([S+]([O-])Cc3ncc(C)c(OC)c3C)nc2c1.[Na+] (stereo not drawn) [Omeprazole (sodium)]	−0.07						Cholesterol-free [1, 13]: 0.7641; Complete [1, 14]: 0.6989; Cholesterol-free media + simvastatin (0.04 μM) [2, 15]: 0.9544; Complete Media [2, 16]: 0.9688; Difference [2, 17]: 0.01
CC(=O)NS(=O)(=O)c1ccc(N)cc1 [Sulfacetamide (Sodium)]	0.04			1.134	1.384	0.25	Cholesterol-free [1, 13]: 0.8669; Complete [1, 14]: 0.9047
Cc1cc(O)cc(C)c1Cl [Chloroxylenol]	−0.19	1.219	1.028				Cholesterol-free media + simvastatin (0.04 μM) [2, 15]: 0.9866; Complete Media [2, 16]: 0.951; Difference [2, 17]: −0.04
